Reference: US12478594B2, “Methods of treatment of kidney injury associated with infection or trauma” (University of Pittsburgh—Of the Commonwealth System of …, priority 2019, dated 2025)

Experiments:
[1] = test system: hemin treated kidney organoids; experiment: Hemin-induced injury of kidney organoids: collagen hybridizing peptide (CHP) staining; assay type: cell-based, human; settings: 25 μM hemin two days, then 10 days with 1 μM, 3 μM, and 9 μM compound
Protocol: A simple bioreactor-based method for growing renal organoids for long periods of time is provided, resulting in tissue with a high degree of maturation. Hemin-induced acute kidney injury produced by the oxidation of the heme of hemoglobin and myoglobin, causing oxidative stress and inflammation. […] These observations indicate that the kidney organoid model of AKI provides a valuable new platform to validate novel compounds in the setting of human AKI.
Organoids were prepared essentially as described in Przepiorski A, Sander V, Tran T, Hollywood J A, Sorrenson B, Shih J H, Wolvetang E J, McMahon A P, Holm™ and Davidson A J. A Simple Bioreactor-Based Method to Generate Kidney Organoids from Pluripotent Stem Cells. Stem Cell Reports. 2018; 11:470-484. As shown in FIG. 8 (A), induced pluripotent stem cells (iPSCs) were cultured for three 3 days in with 8 μM of the Wnt agonist CHIR-99021 (CHIR, e.g., 6-[[2-[[4-(2,4-dichlorophenyl)-5-(5-methyl-1H-imidazol-2-yl)-2-pyrimidinyl]amino]ethyl] amino]-3-pyridinecarbonitrile) in BPEL (BSA poly(vinyl alcohol) essential lipids)), and were then cultured for an additional 11 days in DMEM with Knockout™ Serum Replacement (KOSR). At 14 days, DMEM F12 medium containing 25 μM Hemin (Sigma, H9039) is applied for two days, followed by 10 days with 1 μM, 3 μM, and 9 μM UPHD186 in DMEM with 10% KOSR. UPHD25 was evaluated in the same manner. […]

[2] = test system: septic mice (cecal ligation and puncture); experiment: CLP sepsis-associated AKI model: sepsis survival to day 14; assay type: in vivo, Balb/c mice; settings: 50 mg/kg/day i.p. 7 days
Description: Balb/c mice (20-24 weeks old, male and female, Charles River Labs) were used. Mice were subjected to cecal ligation and puncture surgery (CLP) in accordance with methods reported by Rittirsch et al. (Rittirsch D, Huber-Lang M S, Flierd M A, Ward P A: Immunodesign of experimental sepsis by cecal ligation and puncture. Nature protocols 2009, 4(1):31-36). Specifically, Sepsis was induced by ligating 1 cm length of the cecum from the apex and two punctures with a 25-Gauge needle. Animals in the sham group had only laparotomy without any cecal punctures. Post-surgery treatment included 40 mL/kg Ringer's solution after surgery, and ceftriaxone (25 mg/kg), metronidazole (12.5 mg/kg), and buprenorphine (0.05 mg/kg), every 12 hours administered intraperitoneally (i.p.) for 3 days. Septic animals were randomly divided into four groups to receive a seven-day UPHD186 (50 mg/kg/day, i.p.) or vehicle (20% Cyclodextrin-2% DMSO in PBS, i.p.) treatment, starting from 48 hours or 96 hours post-CLP. […]
Graph and statistical analyses were performed using GraphPad Prism 8 (GraphPad Software). […] Tukey's test was used to determine significance of differences among multiple groups and t test between two groups; survival rates were analyzed using log-rank Mantel-Cox test. […]

[3] = test system: renal fibrosis and histology injury; experiment: CLP sepsis-associated AKI model: renal histology (Masson's trichrome, hematoxylin & eosin), day 14; assay type: in vivo, Balb/c mice
Description: (§1) Balb/c mice (20-24 weeks old, male and female, Charles River Labs) were used. Mice were subjected to cecal ligation and puncture surgery (CLP) in accordance with methods reported by Rittirsch et al. (Rittirsch D, Huber-Lang M S, Flierd M A, Ward P A: Immunodesign of experimental sepsis by cecal ligation and puncture. Nature protocols 2009, 4(1):31-36). Specifically, Sepsis was induced by ligating 1 cm length of the cecum from the apex and two punctures with a 25-Gauge needle. Animals in the sham group had only laparotomy without any cecal punctures. Post-surgery treatment included 40 mL/kg Ringer's solution after surgery, and ceftriaxone (25 mg/kg), metronidazole (12.5 mg/kg), and buprenorphine (0.05 mg/kg), every 12 hours administered intraperitoneally (i.p.) for 3 days. Septic animals were randomly divided into four groups to receive a seven-day UPHD186 (50 mg/kg/day, i.p.) or vehicle (20% Cyclodextrin-2% DMSO in PBS, i.p.) treatment, starting from 48 hours or 96 hours post-CLP. To determine treatment efficacy, time-serial blood samples (approx. 10 μL) were collected through animals' saphenous vein on the days before/after the treatment session. All mice were followed for survival and sacrificed at the 3rd day post-treatment or the endpoint day 14 to collect kidneys and blood samples.
The left kidney was flushed with 10 mL ice-cold PBS, 10 mL 10% formalin through the left ventricle immediately after euthanasia, and the kidney was collected. For immunofluorescence staining, half of the kidney was fixed in 10% formalin for 2 h on ice, incubated in 30% (vol/vol) sucrose at 4° C. overnight, snap frozen in OCT (Sakura FineTek), and cut into 7-μm sections. Sections were treated with heated citrate (Antigen Unmasking Solution, Vector Laboratories), blocked in 10% (vol/vol) normal goat serum (Vector Laboratories) in 0.3M glycine-PBST for 1 h RT, incubated with primary antibodies at 4° C. overnight, and then corresponding secondary antibodies (Jackson ImmunoResearch) in PBS containing 10% of the blocking solution for 1 h RT. Stained sections were mounted in mounting Medium with DAPI (Vectashield H-1000, Vector Laboratories), and stored at −20° C. until observed under confocal microscopy (Fluoview 1000, Olympus). Three washes with PBST were performed between each step. […] Semiquantitative renal histology injury scoring was assessed by an investigator blinded to group assignment and the percentage of fibrosis per area was quantified using ImageJ (https://imagej.nih.gov/ij/; National Institutes of Health). […]

[4] = CLP sepsis-associated AKI model: circulating creatinine; assay type: in vivo, Balb/c mice; settings: early and delayed treatment regimens
Description: as §1, with “samples. […]” for “samples.”

[5] = test system: IL6; experiment: CLP sepsis-associated AKI model: circulating cytokine IL6 (ELISA); assay type: in vivo, Balb/c mice; settings: early and delayed treatment regimens
Description: as §1, with “samples. […]” for “samples.”

[6] = test system: renal mRNA of inflammation, kidney injury, matrix remodeling, cell cycle, proliferation and fibrosis genes; experiment: CLP sepsis-associated AKI model: renal mRNA expression (quantitative PCR); assay type: in vivo, Balb/c mice
Description: as §1
Total tissue RNA was isolated using TRIzol™ reagent (Life Technologies), DNase kit (Invitrogen), and converted into complementary DNA with High-Capacity cDNA Reverse Transcription Kits (Applied Biosystems). Quantitative polymerase chain reaction was performed on a Mx3000PTM system (Agilent Technologies) using primers (Table 1) and SYBR® Select Master Mix (2×) (Applied Biosystems). The expression of each target gene was assayed in duplicate and presented as fold change normalized by that of the endogenous control gene, gapdh expression.
Kidney samples were examined at mRNA levels for genes controlling inflammation (nfκb, ccl20, traf1, traf2, icam), kidney injury (kim1), and matrix remodeling markers (lox, loxl1). Septic animals had higher levels of gene expression compared to sham controls (FIG. 4). […] (FIG. 3D).
Kidney samples on day 14 (following CLP) were examined for mRNA levels for treatment effects on cell cycle regulation (cdkn1a), proliferation (ki67), and pro-fibrosis genes (plod2, fsp1, col1a1). Septic animals had higher levels of fsp1 and col1a1 expressions compared to sham controls (FIG. 7). Early treatment with UPHD186 further increased fsp1 (fold-increase, 3.3±1.3 vs. corresponding CLP+vehicle controls 2.2±1.1, P<0.05), whereas delayed treatment promoted ki67 and inhibited col1a1 expression (fold-increase, ki67: 1.6±0.7 vs. corresponding controls 1.0±0.5, P<0.01; col1a1, 2.2±0.9 vs. 3.7±2.4, P<0.05) (FIG. 5C). Thus, pro-fibrotic gene expression was increased in the recovery phase and early treatment further aggravated these changes; whereas delayed treatment promoted proliferation and attenuated fibrosis.

[7] = test system: F4/80+ mononuclear cells in the kidneys; experiment: CLP sepsis-associated AKI model: kidney monocytes and their phenotype (immunofluorescence), day 3 post-treatment; assay type: in vivo, Balb/c mice; settings: for F4/80+ cell numbers in the kidneys: 50 mg/kg/day i.p.
Description: as §1
The left kidney was flushed with 10 mL ice-cold PBS, 10 mL 10% formalin through the left ventricle immediately after euthanasia, and the kidney was collected. For immunofluorescence staining, half of the kidney was fixed in 10% formalin for 2 h on ice, incubated in 30% (vol/vol) sucrose at 4° C. overnight, snap frozen in OCT (Sakura FineTek), and cut into 7-μm sections. Sections were treated with heated citrate (Antigen Unmasking Solution, Vector Laboratories), blocked in 10% (vol/vol) normal goat serum (Vector Laboratories) in 0.3M glycine-PBST for 1 h RT, incubated with primary antibodies at 4° C. overnight, and then corresponding secondary antibodies (Jackson ImmunoResearch) in PBS containing 10% of the blocking solution for 1 h RT. Stained sections were mounted in mounting Medium with DAPI (Vectashield H-1000, Vector Laboratories), and stored at −20° C. until observed under confocal microscopy (Fluoview 1000, Olympus). Three washes with PBST were performed between each step. The primary antibodies were: goat anti-ICAM (R&D Systems), rabbit anti-Col1 (Novus Biologicals), rabbit anti-fibronectin (Abcam), rabbit anti-vimentin (Abcam), rat anti-F4/80 (Abcam), rabbit anti-iNOS (Abcam), and phalloidin (Thermo Fisher Scientific) was used for staining of the brush-boarder. For immunohistochemistry analysis, the infused kidney was fixed in 10% formalin at 4° C. overnight, embedded in paraffin, and cut into 5-μm sections. Hematoxylin & eosin and Masson's trichrome stain were performed. Semiquantitative renal histology injury scoring was assessed by an investigator blinded to group assignment and the percentage of fibrosis per area was quantified using ImageJ (https://imagej.nih.gov/ij/; National Institutes of Health).
Kidney samples collected at day 3 post-treatment were examined for presence numbers of monocytes in the kidney and their phenotypes (monocytes: F4/80^+, M1: F4/80^+iNOS^+, M2: F4/80^+MR^+).

[8] = test system: IGFBP7; experiment: CLP sepsis-associated AKI model: renal IGFBP7 expression, day 14; assay type: in vivo, Balb/c mice
Description: as §1
The left kidney was flushed with 10 mL ice-cold PBS, 10 mL 10% formalin through the left ventricle immediately after euthanasia, and the kidney was collected. For immunofluorescence staining, half of the kidney was fixed in 10% formalin for 2 h on ice, incubated in 30% (vol/vol) sucrose at 4° C. overnight, snap frozen in OCT (Sakura FineTek), and cut into 7-μm sections. […] Semiquantitative renal histology injury scoring was assessed by an investigator blinded to group assignment and the percentage of fibrosis per area was quantified using ImageJ (https://imagej.nih.gov/ij/; National Institutes of Health).
Renal expression/location of the kidney stress marker insulin-like growth factor-binding protein 7 (IGFBP7) was measured at Day-14 kidneys. […]

Structure (SMILES): COC(=O)CCCSc1ccccc1 [UPHD25, methyl 4-(phenylsulfanyl)butanoate]
- collagen (CHP staining), fibrosis [1]: reduction of collagen

Structure (SMILES): O=C(CCCSc1ccccc1)Nc1ccccc1O [UPHD186, N-(2-hydroxyphenyl)-4-(phenylsulfanyl)butanamide]
- survival rate by day 14 ([2]; delayed treatment (96 h), vehicle 39%, P<0.01): 79%
- survival rate by day 14 ([2]; early treatment (48 h), vehicle 54%, P=0.32): 69%
- histology injury score ([3]; delayed treatment, vehicle 2.1±1.0, P=0.13): 1.4±1.0
- collagen volume fraction ([3]; delayed treatment, vehicle 26.2±7.6, P=0.08): 21.2±4.8%
- histology injury score ([3]; early treatment, CLP vehicle 1.7±0.9): 2.6±1.3
- collagen volume fraction ([3]; early treatment, CLP vehicle 28.4±4.3): 27.6±4.3%
- circulating creatinine, treatment effect [4]: neither creatinine (FIG. 5B) nor cytokine IL6 (FIG. 6) were affected
- circulating cytokine IL6, treatment effect [5]: neither creatinine (FIG. 5B) nor cytokine IL6 (FIG. 6) were affected
- inflammation, kidney injury and matrix remodeling marker mRNA (nfκb, ccl20, traf1, traf2, icam, kim1, lox, loxl1), effect ([6]; delayed treatment, day 3 post-treatment, compared to CLP controls): no effect on any marker expressions
- ki67 renal mRNA ([6]; delayed treatment, day 14 after CLP, controls 1.0±0.5): 1.6±0.7 fold-increase
- col1a1 renal mRNA ([6]; delayed treatment, day 14 after CLP, controls 3.7±2.4): 2.2±0.9 fold-increase
- loxl1 renal mRNA ([6]; early treatment, day 3 post-treatment, CLP 10.5±5.7): 5.0±2.3 fold-increase
- icam1 renal mRNA ([6]; early treatment, day 3 post-treatment, CLP 25.3±4.1): 9.1±2.3 fold-increase
- traf2 renal mRNA ([6]; early treatment, day 3 post-treatment, CLP 32.5±6.9): 12.2±3.0 fold-increase
- traf1 renal mRNA ([6]; early treatment, day 3 post-treatment, CLP 51.5±9.1): 17.1±3.6 fold-increase
- cdkn1a renal mRNA, effect ([6]; early treatment, day 14 (FIG. 5C)): increased cdkn1a
- fsp1 renal mRNA ([6]; early treatment, day 14 after CLP, CLP+vehicle 2.2±1.1): 3.3±1.3 fold-increase
- collagen (CHP staining), fibrosis [1]: reduced
- iNOS expression intensities (M1 marker) ([7]; delayed treatment (96 h post-CLP), CLP vehicle 3.1±1.4): 1.4±0.3
- F4/80+ cell numbers in the kidneys ([7]; delayed treatment (from 96 h post-CLP), CLP vehicle 52.4±32.9): 40.6±24.7 cells/field
- MR expression (M2 marker), treatment effect ([7]; early and delayed treatment groups): no treatment effects were observed
- iNOS expression intensities (M1 marker) ([7]; early treatment (48 h post-CLP), CLP vehicle 1.2±0.7): 2.7±0.3
- F4/80+ cell numbers in the kidneys ([7]; early treatment (from 48 h post-CLP), CLP vehicle 41.2±26.1): 15.7±7.7 cells/field
- overall IGFBP7 renal expression, effect ([8]; delayed treatment, day 14): no such effect
- secretory pattern of IGFBP7, effect ([8]; early and delayed treatment regimens, day 14 (data not shown)): neither treatment regimens changed the secretory pattern of IGFBP7
- overall IGFBP7 renal expression ([8]; early treatment, day 14, CLP 396.9±109.0): 674.1±190.5
